One series deals with HDAC1 (Homo sapiens (Human), UniProt Q13547). Nature of the series: HDAC enzyme inhibition assay (Fluor-de-Lys), HDAC1. The following applies: 2 hours pre-incubation. The format is biochemical. Here is the method: (§1) The HDAC activity inhibition assay was performed as follows to determine the ability of a test compound to inhibit HDAC enzymatic activity. Serial dilutions of HDAC inhibitors were prepared in HDAC assay buffer (25 mM Tris/HCl, pH 8.0, 137 mM NaCl, 2.7 mM KCl, 1 mM MgCl2, pH 8) in 96-well assay plates (Fisher scientific, #07-200-309) and were pre-incubated for 2 hours at room temperature in the presence of 125 μg/ml BSA and purified HDAC1 (BPS Bioscience, San Diego, Calif., #50051), HDAC2 (BPS Bioscience, #50053), or HDAC3/NcoR2 (BPS Bioscience, #50003) at concentrations of 1.25, 1.32, and 0.167 μg/mL, respectively. Following pre-incubation, Fluor-de-Lys™ substrate (Enzo Life Sciences, Plymouth Meeting, Pa., BML-KI104-0050) was added to a final concentration of 10 μM and plates were further incubated for 30 minutes at room temperature. The enzymatic reaction was stopped by addition of Trichostatin A (Sigma-Aldrich, St Louis, Mo., #T8552, final concentration: 100 nM) and trypsin (MP Biomedicals, Solon, Ohio, #02101179) was added to reach a final concentration of 100 μg/mL. After a 15 minute incubation at room temperature, fluorescence was recorded using a Spectramax M2 fluorometer (Molecular Devices, Sunnyvale, Calif.) with excitation at 365 nm and emission at 460 nm. IC50 values were calculated by using a sigmoidal dose-response (variable slope) equation in GraphPad Prism® 5 for Windows (GraphPad Software, La Jolla, Calif.). Results for selected compounds in the HDAC activity inhibition assay are presented in Table 5 (IC50 ranges: IA>20 μM, A<1 μM, 1<B<5 μM, 5<C<10 μM, 10<D<20 μM, ND: not determined).

The next series addresses HDAC2 (Homo sapiens (Human), UniProt Q92769). Nature of the series: HDAC enzyme inhibition assay (Fluor-de-Lys), HDAC2. The format is biochemical. To be noted: 2 hours pre-incubation. The method, then:
as §1

For another series, the target named is HDAC3/NcoR2 (Homo sapiens (Human), UniProt O15379). Nature of the series: HDAC enzyme inhibition assay (Fluor-de-Lys), HDAC3/NcoR2. To be noted: HDAC3/NcoR2, 2 hours pre-incubation. Format: biochemical. Here is the method:
as §1

Series [1] in a line: Brain penetration studies. The format is in vivo. The following applies: C57/BL6/J, mouse; mice, s.c. 5 or 50 mg/kg or i.v. 5 mg/kg; Cmax(brain)/Cmax(plasma); read-out: BPR (brain/plasma ratio). Here is the method: Test compounds were prepared at either 0.5 mg/ml or 5 mg/ml in 30% hydroxypropyl-β-cyclodextrin, 100 mM sodium acetate pH 5.5, 5% DMSO. C57/BL6/J mice were dosed s.c. at 5 mg/kg or 50 mg/kg, or i.v. at 5 mg/kg. Animals were euthanized at pre-dose, 5, 15, 30 min, 1, 2 and 4 hours post-dose and plasma and brain obtained. Three animals per dose per time points were used. The levels of compound in the plasma and brain were determined by standard LC/MS/MS methods. Brain/plasma ratio (BPR) was calculated as the ratio of the Cmax(brain)/Cmax(plasma). The results are shown in Table 5, where IA corresponds to a BPR less than 0.1, D is between 0.1 and 0.2, C is 0.2 to 0.5, B comprises 0.5 to 1 and A is greater than 1.

The nature of series [2]: Hepatocyte stability and metabolism (parent remaining, acid and OPD formation). The format is in vitro ADME. The following applies: human hepatocytes; for % left 6H Hum hep: 5 μM; for OPD: OPD formation by LC-MS/MS after phenylglyoxal derivatisation. Here is the method: The inventors have found, however, that formula (I) compound metabolites are substantially free of OPD when formula (I) compounds are subjected to conditions intended to mimic in vivo metabolism pathways. As used herein, the term “substantially free of OPD” means that OPD was not detected by LC-MS/MS after (i) incubating a formula (I) compound with human, monkey, dog and rat hepatocytes and (ii) treating the metabolite milieu with an acidic solution of phenylglyoxal in an organic solvent (this addition leads to quantitative formation of 2-phenylquinoxaline, which can be easily quantified with a low lower limit of quantitation (LLOQ)). See the Examples section.
To assess the stability and metabolism of RGFP compounds and to quantify the metabolites in hepatocytes. This assay was designed to evaluate the metabolism of RGFP compounds, following their incubation with human, monkey, dog and rat hepatocytes by monitoring either parent drug disappearance or metabolite appearance using LC-MS/MS. The results are shown in Table 5 ((% Left in Hep: IA<10%, 50%<A, 50%>B>30%, 30%>C>10%, ND: not determined).
Procedure: Turn on the water-bath heater to 37° C. Take out the KHB buffer and make sure it is at room temp before use. Prepare 2.5 mM concentration of RGFP compound in DMSO stock. Add 10 μL of above DMSO stock to 2490 μL KHB buffer; final concentration of RGFP compound will be 10 μM. Pre-warm 45 ml InVitro HT Medium to 37° C. in a sterile 50 ml conical tube. Add 1.0 mL Torpedo Antibiotic Mix per 45 mL InVitro HT medium. Transfer 13 mL of warm HT medium with Antibiotic Mix into a 15 mL conical tube. Carefully remove the hepatocyte vials from liquid nitrogen (liquid phase). Immediately immerse the vial into a 37° C. water bath. Shake gently until the ice melts entirely. […] Immediately empty contents of the vial into 13 ml of pre-warmed InVitro HT Medium with antibiotics. Rinse the vial with the HT media just transferred the hepatocytes to, in order to ensure complete transfer. Centrifuge the cell suspension at 600 RPM for 5 minutes at room temperature. […] Add 1.0 ml of KHB (at room temperature) buffer to the tube of hepatocyte pellet. Loosen the cell pellet by gently swirling the centrifuge tube. Transfer 100 μL of above solution to a different tube and add 900 μL of KHB buffer to count the cells. Determine the total cell count and the number of viable cells using the Trypan Blue exclusion method. Once the cell count is obtained, multiply the number by 10 (attributing to the dilution factor). Add required volume of KHB buffer to the tube containing hepatocytes such that the final count will be 2 million cells/mL. Dispense 50 μL of 2 million cells/ml to a 96 well plate and then add 50 μl of DMSO stock to respective wells (such that, the concentration of RGFP compounds is 5 μM and number of cells are 100000 in each well). Place the plates on a shaker in a 37° C. incubator with 5% CO2. Separate plates for each time point are advisable (Time points: 0 h, 1 h, 2 h, and 6 h). After each time point, add 100 μL of quenching solution. Quenching solution is an acetonitrile solution containing RGFP531 (10 μM) internal standard, 0.1% formic acid and phenylglyoxol (400 μM). The formic acid and phenylglyoxal is used for the identification and quantification of OPD as mentioned above. Pipette up and down a few times to ensure a complete stop of reaction. Transfer all the solution into a 1.5 ml tube, vortex thoroughly, and centrifuge at 14000 RPM at 4° C. for 5 minutes to precipitate cell debris. Transfer the 150 μL of supernatant to vials for analysis on LC-MS/MS.
LC-MS/MS parameters for RGFP compounds and metabolites including OPD: LC-MS/MS Parameters for API 2000 QTrap: System: HPLC 1100; Column: Gemini C18, 5 μM 4.6×50 mm; Column Temp: Ambient; MS: API 2000 QTrap (MI mode); Mobile Phase A: HPLC water with 0.05% Formic Acid; Mobile Phase B: Acetonitrile with 0.05% Formic Acid.

Series [3] can be described thus: Acid stability determination. Format: physicochemical. The following applies: 0.01 M HCl, 50° C., 100 μM. The method, then: A 100 μM solution of test compound was prepared by dilution of a 10 mM DMSO stock solution in a 0.01 M solution of HCl in deionized water. Immediately after mixing, an aliquot (100 μL) was sampled and analyzed by HPLC/UV. The area under the compound peak was determined and used as the time zero reference point. The remainder of the acid sample was incubated at 50° C. and samples were taken after 2, 4, and 24 hours of incubation. On a few occasions, samples were taken at 30 rather than 24 hours. These were analyzed by the same HPLC/UV method and the area of the peak corresponding to the test compound was measured. Percent remaining at a given time point was then calculated as the ratio of the area under the peak after incubation to that at time zero times 100. In those cases where a 30 hour time point was recorded, the percent remaining at 24 hours was obtained by interpolation of the percent remaining versus time curve assuming a unimolecular process, i.e. a monoexponential decay. Percent remaining after 24 hours incubation are presented in Table 5 below, where A corresponds to more than 60%, B is between 40 and 60%, C covers 20 to 40% and D means less than 20%.

On the set-up of series [4]: dose or concentration left out as unconfirmed. To be noted: male rats, oral, 78 weeks, cited from earlier work.
For series [5] the following is noted: rats, subcutaneous, cited from earlier work.

Where two headings read alike, the source gives them in different places. Some results are limits rather than exact numbers.

Sequence of HDAC1 (Q13547 whole entry): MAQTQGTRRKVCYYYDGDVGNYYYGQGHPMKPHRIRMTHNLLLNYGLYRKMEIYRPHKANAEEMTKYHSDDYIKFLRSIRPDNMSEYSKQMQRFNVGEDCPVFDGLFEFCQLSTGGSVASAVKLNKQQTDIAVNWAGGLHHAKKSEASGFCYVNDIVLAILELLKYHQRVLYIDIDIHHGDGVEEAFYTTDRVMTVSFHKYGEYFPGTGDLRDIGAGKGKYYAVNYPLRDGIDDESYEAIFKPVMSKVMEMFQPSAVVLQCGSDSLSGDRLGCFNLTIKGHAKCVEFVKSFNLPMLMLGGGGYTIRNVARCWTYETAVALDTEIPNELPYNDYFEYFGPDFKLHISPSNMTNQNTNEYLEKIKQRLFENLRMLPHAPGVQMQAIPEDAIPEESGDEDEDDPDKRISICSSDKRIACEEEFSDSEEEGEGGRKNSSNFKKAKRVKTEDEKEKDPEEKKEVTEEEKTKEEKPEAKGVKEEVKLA
Sequence of HDAC3/NcoR2 (O15379 whole entry): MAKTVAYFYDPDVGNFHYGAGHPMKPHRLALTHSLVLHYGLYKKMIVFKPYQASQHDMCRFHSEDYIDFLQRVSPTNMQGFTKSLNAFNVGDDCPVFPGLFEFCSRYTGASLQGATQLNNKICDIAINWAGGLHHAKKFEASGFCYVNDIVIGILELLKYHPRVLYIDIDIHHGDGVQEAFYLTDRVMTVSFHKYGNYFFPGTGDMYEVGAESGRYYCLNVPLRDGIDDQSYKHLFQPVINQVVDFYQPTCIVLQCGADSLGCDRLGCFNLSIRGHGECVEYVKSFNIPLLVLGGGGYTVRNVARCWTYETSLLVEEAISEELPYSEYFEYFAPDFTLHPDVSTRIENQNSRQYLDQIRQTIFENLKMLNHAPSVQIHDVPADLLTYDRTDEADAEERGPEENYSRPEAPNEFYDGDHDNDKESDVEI
Sequence of HDAC3/NcoR2 (Q9Y618 395-489 partner): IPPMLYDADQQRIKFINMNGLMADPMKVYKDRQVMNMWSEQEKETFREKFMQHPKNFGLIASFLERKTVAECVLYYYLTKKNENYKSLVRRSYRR
Sequence of HDAC2 (Q92769 whole entry): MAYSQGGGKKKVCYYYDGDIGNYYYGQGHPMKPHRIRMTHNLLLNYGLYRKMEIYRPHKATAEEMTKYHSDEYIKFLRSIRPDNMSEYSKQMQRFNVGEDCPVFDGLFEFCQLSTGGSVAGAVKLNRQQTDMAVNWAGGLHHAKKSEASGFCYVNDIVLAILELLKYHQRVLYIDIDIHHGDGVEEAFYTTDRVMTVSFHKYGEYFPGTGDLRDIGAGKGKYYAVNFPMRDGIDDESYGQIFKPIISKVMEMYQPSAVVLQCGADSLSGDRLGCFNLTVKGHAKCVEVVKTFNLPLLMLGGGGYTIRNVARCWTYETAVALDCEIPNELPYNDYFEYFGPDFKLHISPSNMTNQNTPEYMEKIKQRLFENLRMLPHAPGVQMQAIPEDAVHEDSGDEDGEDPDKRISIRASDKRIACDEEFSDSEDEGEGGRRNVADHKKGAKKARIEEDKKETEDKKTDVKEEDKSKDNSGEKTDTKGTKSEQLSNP

On to `Nc1cc(F)ccc1NC(=O)c1ccc2c(cnn2Cc2ccc(F)c(F)c2)c1` [Compound A10], for which the IC50 against HDAC1, against HDAC2 and against HDAC3/NcoR2 was below 1000 nM in each case. In addition, the Kp in series [1] was above 1. Besides, the “% left 6H Hum hep” value in series [2] is recorded as “C (30%>C>10%)”. Besides, the OPD result in series [2] is given as “No OPD”. Moreover, the “Acid Stability % Left 24 hr” value in series [3] is “C (C covers 20 to 40%)”.
For the compound `Nc1ccccc1N` [OPD, o-phenylenediamine], the “rats with liver tumors” value in series [4] (8000 low dose) was 5 out of 17; in series [4] (16000 high dose) it was 5 out of 16. Also, the tumors result in series [5] (45 mg/kg every second day for 11 months) and in series [5] (90 mg/kg every second day for 5 months) was “not detected” throughout.
Regarding `Nc1ccccc1NC(=O)c1ccc2c(cnn2CC2CC2)c1` [Compound A11], the IC50 at HDAC1, at HDAC2 and at HDAC3/NcoR2 was below 1000 nM throughout. Further, the Kp in series [1] fell in the range of 0.2 to 0.5. Further, the “% left 6H Hum hep” value in series [2] was “B (50%>B>30%)”. In series [2], the OPD entry is reported as “No OPD”. For the same compound, the “Acid Stability % Left 24 hr” value in series [3] is “B (B is between 40 and 60%)”.

The values are drawn from patent publication US10428028B2, “HDAC inhibitors” (BIOMARIN PHARMACEUTICAL INC., priority 2013, dated 2019).
